Assay results from PMC13266984 (Journal of medicinal chemistry, 2026).

Columns and labels:
Human ALDH3A1 = target: T1, Human ALDH3A1 (Homo sapiens, UniProt P30838); assay: ALDH3A1 biochemical assay (benzaldehyde/NADP+, diaphorase-resazurin readout, 1,536-well); conditions: for Efficacy: Table S5, biochemical; for CC-v2: Table S5, biochemical curve class
T1 sequence (P30838 1-453): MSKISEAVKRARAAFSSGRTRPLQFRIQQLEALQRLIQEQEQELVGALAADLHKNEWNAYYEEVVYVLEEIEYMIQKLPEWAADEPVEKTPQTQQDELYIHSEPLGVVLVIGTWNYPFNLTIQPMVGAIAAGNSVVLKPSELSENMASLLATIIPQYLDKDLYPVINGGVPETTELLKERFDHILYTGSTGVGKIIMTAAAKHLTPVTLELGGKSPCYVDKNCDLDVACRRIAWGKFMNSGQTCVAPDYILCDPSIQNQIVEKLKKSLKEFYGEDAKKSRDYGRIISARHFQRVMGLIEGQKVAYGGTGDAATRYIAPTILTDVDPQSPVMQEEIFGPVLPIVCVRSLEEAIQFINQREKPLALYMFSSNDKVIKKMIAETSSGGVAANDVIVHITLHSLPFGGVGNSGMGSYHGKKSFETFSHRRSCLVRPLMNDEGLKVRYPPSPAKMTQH

OE19 (3A1) = target: T2, OE19 (3A1) (Homo sapiens, UniProt P30838); assay: Cellular ALDEFLUOR assay in OE19 cells (preferential ALDH3A1 expression); conditions: for Cell_Efficacy: Table S5, OE19 cells; for Cell_CC-v2: Table S5, cellular curve class
T2 sequence (P30838 1-453): T1 sequence (P30838 1-453)

Compound | AC50 (Human ALDH3A1) [nM] | Efficacy (Human ALDH3A1) | CC-v2 (Human ALDH3A1) | AC50 (OE19 (3A1)) [nM] | Cell_Efficacy (OE19 (3A1)) | Cell_CC-v2 (OE19 (3A1))
O=C(NCc1ccc(C(F)(F)F)c(Cl)c1)c1csc(N2CCN(c3cccc(C(F)(F)F)c3)CC2)n1 [NCGC01407914-01] | 28.2 | -95.28 | -1.1 | 609 | -99.51 | -1.3
O=C(NCc1cccc(CC(F)(F)F)c1)c1csc(N2CCN(c3cccc(C(F)(F)F)c3)CC2)n1 [NCGC01407930-01] | 11.2 | -103.16 | -1.1 | 860 | -116.21 | -2.1
O=C(NCc1ccc(S(F)(F)(F)(F)F)cc1)c1csc(N2CCN(c3cccc(C(F)(F)F)c3)CC2)n1 [NCGC01407933-01] | 28.2 | -87.34 | -1.1 | 2720 | -85.12 | -1.1
COc1cc(C)cc(CNC(=O)c2csc(N3CCN(c4cccc(C(F)(F)F)c4)CC3)n2)c1 [NCGC01407935-01] | 14.1 | -100.75 | -1.1 | 1080 | -91.56 | -1.1
O=C(NCc1ccc(F)c(F)c1)c1csc(N2CCN(c3cccc(C(F)(F)F)c3)CC2)n1 [NCGC01407951-01] | 35.5 | -100.75 | -1.1 | 4310 | -93.55 | -1.3
NC(=O)c1csc(N2CCN(c3cccc(C(F)(F)F)c3)CC2)n1 [NCGC01407961-01] | – | -23.04 | 4 | 28200 | -38.73 | -2.3
O=C(NCc1c(Cl)cccc1Br)c1csc(N2CCN(c3cccc(C(F)(F)F)c3)CC2)n1 [NCGC01407972-01] | 50.1 | -90.79 | -1.1 | – | 0.00 | 4

Further lines, results first:

AC50 (Human ALDH3A1) [nM] | Efficacy (Human ALDH3A1) | CC-v2 (Human ALDH3A1) | AC50 (OE19 (3A1)) [nM] | Cell_Efficacy (OE19 (3A1)) | Cell_CC-v2 (OE19 (3A1)) | Compound
447 | -62.88 | -1.2 | 200 | -88.67 | -1.1 | C[S+](=O)([O-])c1ccc(CNC(=O)c2csc(N3CCN(c4cccc(C(F)(F)F)c4)CC3)n2)cc1 [NCGC01407818-01]
501 | -83.40 | -1.1 | 316 | -103.28 | -1.1 | O=C(NCc1cccc(OC(F)(F)F)c1)c1csc(N2CCN(c3cccc(C(F)(F)F)c3)CC2)n1 [NCGC01407819-01]
398 | -26.41 | -1.4 | 2240 | -108.81 | -1.1 | O=C(NCc1ccc(Oc2ccc(F)cc2)cc1)c1csc(N2CCN(c3cccc(C(F)(F)F)c3)CC2)n1 [NCGC01407922-01]
28.2 | -101.06 | -1.1 | 342 | -95.79 | -1.1 | Cc1ccc(CNC(=O)c2csc(N3CCN(c4cccc(C(F)(F)F)c4)CC3)n2)cc1F [NCGC01407934-01]
12.6 | -100.15 | -1.1 | 965 | -88.16 | -1.1 | O=C(NCc1ccc(Cl)c(F)c1)c1csc(N2CCN(c3cccc(C(F)(F)F)c3)CC2)n1 [NCGC01407936-01]
631 | -52.77 | -1.2 | – | 0.00 | 5 | O=C(NCc1cccc(N2CCC[S+]2(=O)[O-])c1)c1csc(N2CCN(c3cccc(C(F)(F)F)c3)CC2)n1 [NCGC01407948-01]
891 | -53.81 | -1.2 | 251 | -83.43 | -1.1 | C[S+](=O)([O-])c1cccc(CNC(=O)c2csc(N3CCN(c4cccc(C(F)(F)F)c4)CC3)n2)c1 [NCGC01407971-01]
